Assay results as given in US20210121426A1, “BLOOD PURIFICATION BY ALKALINIZING AGENT” (TOHOKU UNIVERSITY, priority 2017, published 2021).
Marks after values point to notes of the source that are not given here.

Columns and labels:
[1] = tested on: hippuric acid; assay: Urine hippuric acid (HA) corrected by urinary specific gravity; assay type: in vivo, human
Source text: Medical Examination, Vol. 44, No. 1, 1995, pages 79-83 by Tetsuo Aoki et al. was referred to. A urinary specific gravity 1.022 was converted into a reference value.
Specific gravity correction value (unit/1.022·UG)=actual measurement value×(1.022−1.000)/(specific gravity value−1.000)

[2] = tested on: p-cresyl sulfate; assay: Human clinical trial in CKD patients: p-cresyl sulfate in plasma and early morning urine (LC-MS/MS); assay type: in vivo; set-up: key to Influence on concentration of PCS / Influence on PCS U/P ratio: Excellent effects: ◯; Poor effects: X; No significant difference: —; (◯): whether or not there is an effect of promoting excretion of indoxyl sulfate into the urine cannot be determined
Procedure: (§1) 1. […] Patients were assigned to each group so that age, sex, presence of diabetes, and eGFR were not biased. Each group was treated according to the “CKD medical care guide-summary of treatment” (hereinafter referred to as standard treatment).
(§2) An alkalinizing agent was not administered to the control group. […] A pH of early morning urine was controlled over time so that the dosage could be increased up to 6 tablets, 3 times a day (morning, noon, evening) as needed according to the discretion of the physician in cases where a pH of early morning urine was less than pH 6.5. To the group B, 3 tablets a day in which each tablet contained 500 mg of sodium bicarbonate were orally administered 3 times a day (morning, noon, evening) for 24 weeks. A pH of early morning urine was controlled over time so that the dosage could be increased up to 6 tablets, 3 times a day (morning, noon, evening) as needed according to the discretion of the physician in cases where a pH of early morning urine was less than pH 6.5.
(§3) Early morning urine and blood were collected before the start of administration, and 6 weeks, 12 weeks, and 24 weeks after the start of administration, and each specimen was stored at −80° C. Methods used in the present field for indoxyl sulfate, p-cresyl sulfate, phenylacetyl-L-glutamine, hippuric acid, and argininosuccinic acid in urine and blood (Sato, E., et. al., Metabolic alteration by indoxyl sulfate in skeletal muscle induce uremic sarcopenia in chronic kidney disease., Sci Rep. 2016 Nov. 10; 6:36618. doi: 10.1038/srep36618, and the like) were referred to, and quantitative analysis was performed using the following liquid chromatography triple quadrupole mass spectrometer (LC-MS/MS).
(§4) For LC, NANOSPACE SI-2 (manufactured by Shiseido) was used, and […] MGM was selected as the analytical column.
(§5) For MS, TSQ Quantiva (manufactured by Thermo Fisher Scientific Co., Ltd.) was used, and five compounds were ionized in the negative mode and detected using the Selected Reaction Monitoring method. The quantitative value was calculated using a calibration curve prepared with a standard solution of each compound.
(§6) For statistical analysis, the Mann-Whitney test was used for comparison between groups, and the Wilcoxon test was used for comparison of changes over time. The Pearson test was used for correlation.
(§7) Then, the average value and SD of each group were calculated for (i) to (ix) above. For each of (iv) to (ix) above, the average value and SD of each group were calculated for all data of 6 weeks, 12 weeks, and 24 weeks after the start of administration in each group.

[3] = Human clinical trial: osmotic pressure of early morning urine (freezing point depression method); assay type: in vivo
Procedure: as §1, §2
The osmotic pressure was measured using the freezing point depression method.

[4] = tested on: hippuric acid; assay: Human clinical trial in CKD patients: hippuric acid in plasma and early morning urine (LC-MS/MS); assay type: in vivo; set-up: key to Influence on concentration of HA / Influence on HA U/P ratio: Excellent effects: ◯; Poor effects: X; No significant difference: —; (◯): whether or not there is an effect of promoting excretion of indoxyl sulfate into the urine cannot be determined
Procedure: as §1, §2, §3, §4, §5, §6, §7

[5] = 0 W, before the start of administration
[6] = 6-24 W, all data of 6, 12 and 24 weeks
[7] = Plasma, comparison with reference drug
[8] = Urine, comparison with reference drug
[9] = compared to before administration

In the case of `O=C([O-])O.[Na+]` [Bicarbonate, sodium bicarbonate], the “Urine HA, specific gravity corrected” value ([1]; 0 W) is reported as 202.3 ± 185.6 μg · mL^−1/1.022 · UG, the “Urine HA, specific gravity corrected” value ([1]; 6-24 W, all data) is reported as 170.2 ± 101.6 μg · mL^−1/1.022 · UG and the “Urine HA, specific gravity corrected, % Relative value vs week 0” value (from here on “Urine HA … % Relative value vs week 0”) ([1]; 6-24 W, all data) is reported as 118 ± 106%. For the same molecule, the “Urine HA, specific gravity corrected, difference vs week 0” value (“Urine HA … difference vs week 0” below) ([1]; 6-24 W, all data) was −32.1 ± 160.3 μg · mL^−1/1.022 · UG, the “Urine HA, specific gravity corrected” value ([1]; 6 W) was 161.8 ± 111.1 μg · mL^−1/1.022 · UG and the “Urine HA … % Relative value vs week 0” value ([1]; 6 W) was 104 ± 89%. For the same molecule, the “Urine HA … difference vs week 0” value ([1]; 6 W) was −40.5 ± 171.7 μg · mL^−1/1.022 · UG, the “Urine HA, specific gravity corrected” value ([1]; 12 W) was 171.1 ± 87.0 μg · mL^−1/1.022 · UG and the “Urine HA … % Relative value vs week 0” value ([1]; 12 W) was 133 ± 134%. The “Urine HA … difference vs week 0” value ([1]; 12 W) was −31.2 ± 163.7 μg · mL^−1/1.022 · UG, the “Urine HA, specific gravity corrected” value ([1]; 24 W) was 177.7 ± 111.0 μg · mL^−1/1.022 · UG and the “Urine HA … % Relative value vs week 0” value ([1]; 24 W) was 118 ± 96%. For the same molecule, the “Urine HA … difference vs week 0” value ([1]; 24 W) was −24.6 ± 155.3 μg · mL^−1/1.022 · UG, the “Plasma p-Cresyl Sulfate” value [2, 5] was 5402 ± 5209 ng/mL and the “Urine p-Cresyl Sulfate (early morning urine)” value [2, 5] was 66164 ± 97704 ng/mL. The “p-Cresyl Sulfate-Urine/Plasma ratio” value [2, 5] was 15.6 ± 11.1, the “Plasma p-Cresyl Sulfate” value [2, 6] was 4187 ± 4354 ng/mL and the “Plasma p-Cresyl Sulfate, change from week 0” value [2, 6] was -1038 ± 2773 ng/mL. The “Urine p-Cresyl Sulfate (early morning urine)” value [2, 6] was 52501 ± 73583 ng/mL, the “Urine p-Cresyl Sulfate, change from week 0” value [2, 6] was -13663 ± 74566 ng/mL and the “p-Cresyl Sulfate-Urine/Plasma ratio” value [2, 6] was 16.8 ± 13.9 ^d. For the same molecule, the “p-Cresyl Sulfate-Urine/Plasma ratio, change from week 0” value [2, 6] was 1.20 ± 11.45, the “Plasma p-Cresyl Sulfate” value ([2]; 6 W) was 4506 ± 5300 ng/mL and the “Plasma p-Cresyl Sulfate, change from week 0” value ([2]; 6 W) was -895.9 ± 2153 ng/mL. The “Urine p-Cresyl Sulfate (early morning urine)” value ([2]; 6 W) was 67744 ± 105548 ng/mL, the “Urine p-Cresyl Sulfate, change from week 0” value ([2]; 6 W) was 1580 ± 51468 ng/mL and the “p-Cresyl Sulfate-Urine/Plasma ratio” value ([2]; 6 W) was 17.0 ± 12.0. For the same molecule, the “p-Cresyl Sulfate-Urine/Plasma ratio, change from week 0” value ([2]; 6 W) was 1.39 ± 8.25, the “Plasma p-Cresyl Sulfate” value ([2]; 12 W) was 3771 ± 4139 ng/mL and the “Plasma p-Cresyl Sulfate, change from week 0” value ([2]; 12 W) was -1103 ± 2478 ng/mL. The “Urine p-Cresyl Sulfate (early morning urine)” value ([2]; 12 W) was 37730 ± 48411 ng/mL, the “Urine p-Cresyl Sulfate, change from week 0” value ([2]; 12 W) was -28434 ± 72253 ng/mL and the “p-Cresyl Sulfate-Urine/Plasma ratio” value ([2]; 12 W) was 16.5 ± 17.9. The “p-Cresyl Sulfate-Urine/Plasma ratio, change from week 0” value ([2]; 12 W) was 0.91 ± 15.68, the “Plasma p-Cresyl Sulfate” value ([2]; 24 W) was 4284 ± 3682 ng/mL and the “Plasma p-Cresyl Sulfate, change from week 0” value ([2]; 24 W) was -1119 ± 3631 ng/mL. For the same molecule, the “Urine p-Cresyl Sulfate (early morning urine)” value ([2]; 24 W) was 52029 ± 57779 ng/mL, the “Urine p-Cresyl Sulfate, change from week 0” value ([2]; 24 W) was -14163 ± 95244 ng/mL and the “p-Cresyl Sulfate-Urine/Plasma ratio” value ([2]; 24 W) was 17.0 ± 11.8 ^c. The “p-Cresyl Sulfate-Urine/Plasma ratio, change from week 0” value ([2]; 24 W) was 1.31 ± 9.81, the “Influence on concentration of PCS” value ([2]; Plasma, comparison with Cont) was “—” and the “Influence on concentration of PCS” value [2, 7] was “◯”. For the same molecule, the “Influence on PCS U/P ratio” value ([2]; comparison with Cont) was “◯”, the “Influence on PCS U/P ratio” value ([2]; comparison with reference drug) was “—” and the “Influence on concentration of PCS” value ([2]; Urine, comparison with Cont) was “—”. For the same molecule, the “Influence on concentration of PCS” value [2, 8] was “X”, the “concentration of p-cresyl sulfate in plasma” value [2, 9] was “decreased” and the “concentration of p-cresyl sulfate in urine” value [2, 9] was “such an effect was not recognized”. For the same molecule, the “Urine Osmotic Pressure” value ([3]; 0 W, before the start of the test) was 492 ± 206 mOsm/kg, the “Urine Osmotic Pressure” value ([3]; 6-24 W, all data) was 486 ± 164 mOsm/kg and the “Urine Osmotic Pressure (% Relative value vs week 0)” value ([3]; 6-24 W, all data) was 109 ± 45^b %. The “Urine Osmotic Pressure, difference vs week 0” value ([3]; 6-24 W, all data) was −6 ± 168 mOsm/kg, the “Urine Osmotic Pressure” value ([3]; 6 W) was 488 ± 154 mOsm/kg and the “Urine Osmotic Pressure (% Relative value vs week 0)” value ([3]; 6 W) was 108 ± 34%. For the same molecule, the “Urine Osmotic Pressure, difference vs week 0” value ([3]; 6 W) was −4 ± 165 mOsm/kg, the “Urine Osmotic Pressure” value ([3]; 12 W) was 456 ± 143 mOsm/kg and the “Urine Osmotic Pressure (% Relative value vs week 0)” value ([3]; 12 W) was 105 ± 57%. The “Urine Osmotic Pressure, difference vs week 0” value ([3]; 12 W) was −36 ± 176^ mOsm/kg, the “Urine Osmotic Pressure” value ([3]; 24 W) was 515 ± 195 mOsm/kg and the “Urine Osmotic Pressure (% Relative value vs week 0)” value ([3]; 24 W) was 114 ± 45%. For the same molecule, the “Urine Osmotic Pressure, difference vs week 0” value ([3]; 24 W) was 23 ± 169 mOsm/kg, the “osmotic pressure value of early morning urine” value ([3]; over 6, 12 and 24 weeks, compared with the control group) was “maintained or increased” and the “Hippuric Acid-Urine/Plasma ratio” value [4, 5] was 304.5 ± 361.8. For the same molecule, the “Plasma Hippuric Acid” value [4, 5] was 742 ± 706 ng/mL, the “Urine Hippuric Acid (early morning urine)” value [4, 5] was 109249 ± 96133 ng/mL and the “Hippuric Acid-Urine/Plasma ratio” value [4, 6] was 265.8 ± 812.9. For the same molecule, the “Hippuric Acid-Urine/Plasma ratio, change from week 0” value [4, 6] was −50.2 ± 688.3^b, the “Plasma Hippuric Acid” value [4, 6] was 1091 ± 991 ng/mL and the “Plasma Hippuric Acid, change from week 0” value [4, 6] was 342.1 ± 838.5 ^e ng/mL. For the same molecule, the “Urine Hippuric Acid (early morning urine)” value [4, 6] was 103027 ± 76475 ng/mL, the “Urine Hippuric Acid, change from week 0” value [4, 6] was -6221 ± 73493 ng/mL and the “Hippuric Acid-Urine/Plasma ratio” value ([4]; 6 W) was 148.7 ± 119.2^f. For the same molecule, the “Hippuric Acid-Urine/Plasma ratio, change from week 0” value ([4]; 6 W) was −155.8 ± 312.2^a, the “Plasma Hippuric Acid” value ([4]; 6 W) was 809 ± 496 ng/mL and the “Plasma Hippuric Acid, change from week 0” value ([4]; 6 W) was 66.6 ± 681.8 ng/mL. The “Urine Hippuric Acid (early morning urine)” value ([4]; 6 W) was 98283 ± 80730 ng/mL, the “Urine Hippuric Acid, change from week 0” value ([4]; 6 W) was -10966 ± 75133 ng/mL and the “Hippuric Acid-Urine/Plasma ratio” value ([4]; 12 W) was 151.8 ± 115.8. The “Hippuric Acid-Urine/Plasma ratio, change from week 0” value ([4]; 12 W) was −161.2 ± 302.1, the “Plasma Hippuric Acid” value ([4]; 12 W) was 994 ± 806 ng/mL and the “Plasma Hippuric Acid, change from week 0” value ([4]; 12 W) was 230.0 ± 655.6 ng/mL. The “Urine Hippuric Acid (early morning urine)” value ([4]; 12 W) was 96346 ± 70315 ng/mL, the “Urine Hippuric Acid, change from week 0” value ([4]; 12 W) was -12903 ± 61236 ng/mL and the “Hippuric Acid-Urine/Plasma ratio” value ([4]; 24 W) was 523.0 ± 1438. The “Hippuric Acid-Urine/Plasma ratio, change from week 0” value ([4]; 24 W) was 191.1 ± 1147, the “Plasma Hippuric Acid” value ([4]; 24 W) was 1465 ± 1387^c ng/mL and the “Plasma Hippuric Acid, change from week 0” value ([4]; 24 W) was 722.3 ± 1023 ^c ng/mL. For the same molecule, the “Urine Hippuric Acid (early morning urine)” value ([4]; 24 W) was 114453 ± 81562 ng/mL, the “Urine Hippuric Acid, change from week 0” value ([4]; 24 W) was 5204 ± 85546 ng/mL and the “Influence on concentration of HA” value ([4]; Plasma, comparison with Cont) was “X”. For the same molecule, the “Influence on concentration of HA” value [4, 7] was “—”, the “Influence on HA U/P ratio” value ([4]; comparison with Cont) was “X” and the “Influence on HA U/P ratio” value ([4]; comparison with reference drug) was “—”. For the same molecule, the “Influence on concentration of HA” value ([4]; Urine, comparison with Cont) was “—” and the “Influence on concentration of HA” value [4, 8] was “—”.
